Test results reported in patent publication US8546401B2, “5,6-disubstituted oxindole-derivatives and use thereof for treating vasopressin-dependent diseases” (AbbVie Deutschland GmbH & Co. KG, priority 2007, dated 2013).

How the values were obtained:
[1] = molecular target: T1, human vasopressin V1a receptor (Homo sapiens, UniProt P37288); assay: Vasopressin V1a receptor binding assay; settings: selectivity quotient, human receptors
T1 construct: expressed in transfected cells; host or cells: CHO-K1 (cell line hV1a_5_CHO), membrane preparation
Protocol: 2. Vasopressin V1a Receptor Binding Assay:
The test substances were dissolved in a concentration of 10^−2 M in DMSO. Further dilution of these DMSO solutions took place in incubation buffer (50 mM Tris, 10 mM MgCl2, 0.1% BSA, pH 7.4).
(§1) CHO-K1 cells with stably expressed human vasopressin V1a receptor (clone 5) were harvested and homogenized in 50 mM Tris-HCl and in the presence of protease inhibitors (Roche complete Mini #1836170) using a Polytron homogenizer at intermediate setting for 2×10 seconds, and subsequently centrifuged at 40 000×g for 1 h. The membrane pellet was again homogenized and centrifuged as described and subsequently taken up in 50 mM Tris-HCl, pH 7.4, homogenized and stored in aliquots frozen in liquid nitrogen at −190° C.
(§2) The binding assay was carried out by the method based on that of Tahara et al. (Tahara A et al., Brit. J. Pharmacol. 125, 1463-1470 (1998)).
(§3) The incubation buffer was: 50 mM Tris, 10 mM MgCl2, 0.1% BSA, pH 7.4.
In the assay mixture (250 μl), membranes (20 μg/ml protein in incubation buffer) from CHO-K1 cells with stably expressed human V1a receptors (cell line hV1a—5_CHO) were incubated with 0.04 nM ^125I-AVP (8-Arg-vasopressin, NEX 128) in incubation buffer (50 mM Tris, 10 mM MgCl2, 0.1% BSA, pH 7.4) (total binding) or additionally with increasing concentrations of test substance (displacement experiment). The nonspecific binding was determined with 1 μM AVP (Bachem #H1780). Triplicate determinations were carried out.
After incubation (60 minutes at room temperature), the free radioligand was filtered off by vacuum filtration (Skatron cell harvester 7000) through Wathman GF/B glass fiber filter mats, and the filters were transferred into scintillation vials.
The liquid scintillation measurement took place in a model 2000 or 2200CA Tricarb instrument (Packard). Conversion of the measured cpm into dpm was carried out with the aid of a standard quench series.
(§4) The binding parameters were calculated by nonlinear regression in SAS. The algorithms of the program operate in analogy to the LIGAND analysis program (Munson P J and Rodbard D, Analytical Biochem. 107, 220-239 (1980)). The Kd of ^125I-AVP for the recombinant hV1a receptors was determined in saturation experiments. A Kd of 1.33 nM was used to determine the Ki.

[2] = molecular target: T2, human oxytocin receptors (Homo sapiens, UniProt P30559); assay: Oxytocin receptor binding assay; settings: selectivity quotient
T2 construct: expressed in transfected cells; host or cells: HEK-293, transient expression; lysed and homogenized cells
T2 sequence (P30559 1-389): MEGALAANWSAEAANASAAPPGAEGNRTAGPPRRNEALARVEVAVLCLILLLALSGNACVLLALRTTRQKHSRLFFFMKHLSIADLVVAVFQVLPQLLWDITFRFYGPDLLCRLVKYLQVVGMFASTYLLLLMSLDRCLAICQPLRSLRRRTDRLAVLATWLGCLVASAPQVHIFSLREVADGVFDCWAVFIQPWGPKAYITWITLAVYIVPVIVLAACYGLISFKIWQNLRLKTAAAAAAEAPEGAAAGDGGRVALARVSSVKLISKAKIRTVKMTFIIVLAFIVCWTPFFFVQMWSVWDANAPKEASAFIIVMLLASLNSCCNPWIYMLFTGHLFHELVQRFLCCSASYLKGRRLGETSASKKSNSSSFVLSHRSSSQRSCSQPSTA
Protocol: 4. Oxytocin Receptor Binding Assay
The substances were dissolved in a concentration of 10^−2 M in DMSO and diluted with incubation buffer (50 mM Tris, 10 mM MgCl2, 0.1% BSA, pH 7.4).
Confluent HEK-293 cells with transiently expressing recombinant human oxytocin receptors were centrifuged at 750×g at room temperature for 5 minutes. The residue was taken up in ice-cold lysis buffer (50 mM Tris-HCl, 10% glycerol, pH 7.4 and Roche complete protease inhibitor) and subjected to an osmotic shock at 4° C. for 20 minutes. The lyzed cells were then centrifuged at 750×g at 4° C. for 20 minutes, the residue was taken up in incubation buffer, and aliquots of 10^7 cells/ml were prepared. The aliquots were frozen at −80° C. until used.
On the day of the experiment, the cells were thawed, diluted with incubation buffer and homogenized using a Multipette Combitip (Eppendorf, Hamburg). The reaction mixture of 0.250 ml was composed of 2 to 5×10^4 recombinant cells, 3-4 nM ^3H-oxytocin (PerkinElmer, NET 858) in the presence of test substance (inhibition plot) or only incubation buffer (total binding). The nonspecific binding was determined with 10^−6 M oxytocin (Bachem AG, H2510). Triplicate determinations were set up. Bound and free radioligand were separated by filtration under vacuum with Whatman GF/B glass fiber filters with the aid of a Skatron cell harvester 7000. The bound radioactivity was determined by liquid scintillation measurement in a Tricarb Beta counter, model 2000 or 2200CA (Packard).
The binding parameters were calculated by nonlinear regression analysis (SAS) in analogy to the LIGAND program of Munson and Rodbard (Analytical Biochem 1980; 107: 220-239). The Kd of ^3H-oxytocin for the recombinant hOT receptors is 7.6 nM and was used to determine the Ki.

[3] = molecular target: T3, human vasopressin V1b receptor (Homo sapiens, UniProt P47901); assay: Vasopressin V1b receptor binding assay; settings: CHO-K1 membranes, 3H-AVP displacement
T3 construct: expressed in transfected cells; host or cells: CHO-K1 (cell line hV1b_3H2_CHO), membrane preparation
T3 sequence (P47901 1-424): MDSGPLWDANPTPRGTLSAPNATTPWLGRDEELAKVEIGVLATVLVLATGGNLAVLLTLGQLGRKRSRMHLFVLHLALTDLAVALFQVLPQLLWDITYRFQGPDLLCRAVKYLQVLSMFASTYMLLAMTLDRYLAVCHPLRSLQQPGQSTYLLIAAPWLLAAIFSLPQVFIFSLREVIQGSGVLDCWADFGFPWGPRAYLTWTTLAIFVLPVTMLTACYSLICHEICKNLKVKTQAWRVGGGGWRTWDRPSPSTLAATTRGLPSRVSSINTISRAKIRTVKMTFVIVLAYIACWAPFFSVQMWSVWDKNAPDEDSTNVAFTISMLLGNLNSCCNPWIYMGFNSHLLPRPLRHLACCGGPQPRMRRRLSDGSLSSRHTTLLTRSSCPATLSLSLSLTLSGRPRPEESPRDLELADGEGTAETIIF
Protocol: 1. Vasopressin V1b Receptor Binding Assay:
The test substances were dissolved in a concentration of 10^−2 M in DMSO and further diluted to 5×10^−4 M to 5×10^−3 M. These serial DMSO predilutions were diluted 1:10 with assay buffer. The substance concentration was further diluted 1:5 in the assay mixture (2% DMSO in the mixture).
as §1, with “V1b” for “V1a”, “3H2)” for “5)”
as §2, §3
In the assay mixture (250 μl), membranes (50 μg/ml protein in incubation buffer) from CHO-K1 cells with stably expressed human V1b receptors (cell line hV1b—3H2_CHO) were incubated with 1.5 nM ^3H-AVP (8-Arg-vasopressin, PerkinElmer #18479) in incubation buffer (50 mM Tris, 10 mM MgCl2, 0.1% BSA, pH 7.4) (total binding) or additionally with increasing concentrations of test substance (displacement experiment). The nonspecific binding was determined with […] (Bachem #H1780). All determinations were carried out as triplicate determinations. After incubation (60 minutes at room temperature), the free radioligand was filtered off by vacuum filtration (Skatron cell harvester 7000) through Wathman GF/B glass fiber filter mats, and the filters were transferred into scintillation vials. The liquid scintillation measurement took place in a model 2000 or 2200CA Tricarb instrument (Packard). Conversion of the measured cpm into dpm was carried out with the aid of a standard quench series.
as §4, with “^3H-AVP” for “^125I-AVP”, “human V1b” for “hV1a”, “is 0.4” for “was determined in saturation experiments. A Kd of 1.33”, “nM and” for “nM”

T1 sequence (P37288 whole entry): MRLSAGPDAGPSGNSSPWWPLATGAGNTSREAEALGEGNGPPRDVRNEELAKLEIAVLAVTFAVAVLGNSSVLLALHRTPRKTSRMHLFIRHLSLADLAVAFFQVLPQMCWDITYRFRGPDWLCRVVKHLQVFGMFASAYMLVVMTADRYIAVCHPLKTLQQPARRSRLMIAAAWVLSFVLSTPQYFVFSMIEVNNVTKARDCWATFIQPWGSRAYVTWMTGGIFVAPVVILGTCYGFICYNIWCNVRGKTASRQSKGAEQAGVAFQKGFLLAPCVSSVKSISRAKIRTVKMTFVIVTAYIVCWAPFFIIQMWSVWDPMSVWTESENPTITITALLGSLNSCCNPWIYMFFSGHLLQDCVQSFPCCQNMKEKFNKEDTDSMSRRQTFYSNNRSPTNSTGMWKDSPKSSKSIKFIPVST

Ki(h − V1a)/Ki(h − V1b)* [1] | Ki(h − OT)/Ki(h − V1b)* [2] | Ki [3] | SMILES
++ (25-75) | ++ (25-75) | 1 to 10 nM | CCOc1ncccc1C1(OC(=O)N2CCN(C3CCN(C)CC3)CC2)C(=O)N(S(=O)(=O)c2ccccc2OC)c2cc(F)c(F)cc21 (stereo not drawn) [Example 53, 3-(2-Ethoxypyridin-3-yl)-5,6-difluoro-1-(2-methoxyphenylsulfonyl)-2-oxo-2,3-dihydro-1H-indol-3-yl 4-(1-methylpiperidin-4-yl)piperazine-1-carboxylate]
++ (25-75) | +++ (>75) | < 1 nM | CCOc1ncccc1C1(OC(=O)N2CCN(C3CCN(C)CC3)CC2)C(=O)N(S(=O)(=O)c2ccccc2OC)c2cc(F)c(Cl)cc21 (stereo not drawn) [Example 43, 5-Chloro-3-(2-ethoxypyridin-3-yl)-6-fluoro-1-(2-methoxyphenylsulfonyl)-2-oxo-2,3-dihydro-1H-indol-3-yl 4-(1-methylpiperidin-4-yl)piperazine-1-carboxylate]
+ (10-<25) | ++ (25-75) | 10 to 100 nM | CCOc1ncccc1C1(OC(=O)N2CCN(C3CCN(C)CC3)CC2)C(=O)N(S(=O)(=O)c2ccccc2OC)c2cc(Cl)c(F)cc21 (stereo not drawn) [Example 50, 6-Chloro-3-(2-ethoxypyridin-3-yl)-5-fluoro-1-(2-methoxyphenylsulfonyl)-2-oxo-2,3-dihydro-1H-indol-3-yl 4-(1-methylpiperidin-4-yl)piperazine-1-carboxylate]
+ (10-<25) | + (10-<25) | < 1 nM | CCOc1ncccc1C1(OC(=O)N2CCN(C3CCN(C)CC3)CC2)C(=O)N(S(=O)(=O)c2ccc(OC)cc2OC)c2cc(F)c(Cl)cc21 (stereo not drawn) [Example 41, 5-Chloro-1-(2,4-dimethoxyphenylsulfonyl)-3-(2-ethoxypyridin-3-yl)-6-fluoro-2-oxo-2,3-dihydro-1H-indol-3-yl 4-(1-methylpiperidin-4-yl)piperazine-1-carboxylate]
+ (10-<25) | +++ (>75) | 1 to 10 nM | CCOc1ncccc1C1(OC(=O)N2CCN(C3CCN(C)CC3)CC2)C(=O)N(S(=O)(=O)c2ccccc2)c2cc(F)c(Cl)cc21 (stereo not drawn) [Example 45, 1-Phenylsulfonyl-5-chloro-3-(2-ethoxypyridin-3-yl)-6-fluoro-2-oxo-2,3-dihydro-1H-indol-3-yl 4-(1-methylpiperidin-4-yl)piperazine-1-carboxylate]

Second part, the compound before the results:

SMILES | Ki(h − V1a)/Ki(h − V1b)* [1] | Ki(h − OT)/Ki(h − V1b)* [2] | Ki [3]
CCOc1ncccc1C1(OC(=O)N2CCN(C3CCN(C)CC3)CC2)C(=O)N(S(=O)(=O)c2ccc(OC)cc2OC)c2cc(F)c(C#N)cc21 (stereo not drawn) [Example 38, 5-Cyano-1-(2,4-dimethoxybenzenesulfonyl)-3-(2-ethoxypyridin-3-yl)-6-fluoro-2-oxo-2,3-dihydro-1H-indol-3-yl 4-(1-methylpiperidin-4-yl)piperazine-1-carboxylate] | +++ (>75) | +++ (>75) | < 1 nM
CCOc1ccccc1C1(NC(=O)N2CCC(N3CCN(CC)CC3)CC2)C(=O)N(S(=O)(=O)c2ccc(OC)cc2OC)c2cc(F)c(C#N)cc21 (stereo not drawn) [Example 16, 4-(4-Ethylpiperazin-1-yl)piperidine-1-[5-cyano-1-(2,4-dimethoxyphenylsulfonyl)-3-(2-ethoxyphenyl)-6-fluoro-2-oxo-2,3-dihydro-1H-indol-3-yl]carboxamide] | + (10-<25) | +++ (>75) | < 1 nM
CCOc1ccccc1C1(NC(=O)N2CCC(N3CCN(CC)CC3)CC2)C(=O)N(S(=O)(=O)c2ccc(OC)cc2)c2cc(F)c(C#N)cc21 (stereo not drawn) [Example 17, 4-(4-Ethylpiperazin-1-yl)piperidine-1-[5-cyano-3-(2-ethoxyphenyl)-6-fluoro-1-(4-methoxyphenylsulfonyl)-2-oxo-2,3-dihydro-1H-indol-3-yl]carboxamide] | + (10-<25) | +++ (>75) | 1 to 10 nM
CCOc1ncccc1C1(NC(=O)N2CCC(N3CCN(CC)CC3)CC2)C(=O)N(S(=O)(=O)c2ccc(OC)cc2)c2cc(F)c(C#N)cc21 (stereo not drawn) [Example 8, 4-(4-Ethylpiperazin-1-yl)piperidine-1-[5-cyano-3-(2-ethoxypyridin-3-yl)-6-fluoro-1-(4-methoxyphenylsulfonyl)-2-oxo-2,3-dihydro-1H-indol-3-yl]carboxamide] | ++ (25-75) | +++ (>75) | 1 to 10 nM
